Patent US20060252699A1, “Method for lowering serum homocysteine” (priority 2004, published 2006)
Where “and” joins values, the source holds several entries; their conditions need not be identical. Equal values may be shown once.

Columns and labels:
serum homocysteine = experiment: L-isoleucine therapy for 10 weeks in postmenopausal women: serum homocysteine; type: in vivo, human
Procedure: L-isoleucine therapy (3-5 grams/day divided into two doses per day) was administered to 17 postmenopausal women for 10 weeks. The L-isoleucine therapy was associated with an 11% average reduction in serum homocysteine levels among 14 post menopausal woman experiencing hot flashes.

[1] = tested on: methylmalonyl CoA mutase (MCM); conditions: brain astrocytes, in vitro; cited from earlier work

| SMILES | average reduction in serum homocysteine levels (serum homocysteine; among 14 post menopausal women experiencing hot flashes, 10 weeks) [%] | reduction in serum homocysteine (serum homocysteine; in 2 participants) [%] | reduction in serum homocysteine (serum homocysteine; in 5 participants) [%] | homocysteine (serum homocysteine; individual participants, 10 week values (l), L-isoleucine 3-5 grams/day divided into two doses) | % reduction (homocysteine) (serum homocysteine; individual participants, 10 week vs baseline, given as fraction) | upregulation of the expression of MCM message [1] [fold] |
| --- | --- | --- | --- | --- | --- | --- |
| CC[C@H](C)[C@H](N)C(=O)O [L-isoleucine] | 11 | > 30 | > 20 | 9.8 umol/L and 4.8 umol/L and 7 umol/L (2×) and 7.1 umol/L and 8.7 umol/L and 7.9 umol/L and 6.1 umol/L and 10.8 umol/L and 8.3 umol/L (2×) and 5.1 umol/L and 6.6 umol/L and 6.7 umol/L | 0.3043 and 0.2473 and 0.01389 and 0 and 0.1319 and 0.04688 and 0.01408 and 0.009174 and −0.2388 and 0.03488 and 0.1774 and 0.2235 and 0.3021 and 0.2632 | 4 |
| CCC(=O)SCCNC(=O)CCNC(=O)[C@H](O)C(C)(C)COP(=O)(O)OP(=O)(O)OC[C@H]1O[C@@H](n2cnc3c(N)ncnc32)[C@H](O)[C@@H]1OP(=O)(O)O [propionyl CoA] |  |  |  |  |  | 4 |
| CC(C)[C@H](N)C(=O)O [valine] |  |  |  |  |  | 4 |
